{"source": "paper PMC7434893", "about": "(British Journal of Cancer, 2020)", "key": {"[1]": {"assay": "Food-effect pharmacokinetics, expansion cohort", "type": "in vivo, human", "conditions": "for Cmax / AUC(0-24h) / AUC(0-inf) / AUC(0-t) / Rac / t1/2 / tmax: 600 mg; for Cmax / AUC(0-24h) / AUC(0-inf) / AUC(0-t) / Rac / t1/2: mean (SD); for tmax: median (min, max)", "protocol": "Fed patients were administered E7449 immediately after consuming a meal. Patients were then crossed over to the alternate food regimen on day 15."}, "sVEGFR2": {"system": "sVEGFR2", "assay": "Serum biomarker analysis, sVEGFR2", "type": "in vivo, human", "conditions": "data not shown", "protocol": "(§1) Two pre-dose, multiple post-dose and off-treatment time points were included. Serum samples were tested for concentrations of soluble vascular endothelial growth factor receptor (VEGFR)2, VEGFR3 and soluble interleukin-2 receptor α (sIL-2Rα/CD25), using the bead-based Human Soluble Cytokine Receptor Panel assay kit. The two baseline samples (days −3 and −2 prior to dosing) were averaged, and the mean was used to calculate percent change at each of the post-dosing time points."}, "sVEGFR3": {"system": "sVEGFR3", "assay": "Serum biomarker analysis, sVEGFR3", "type": "in vivo, human", "conditions": "data not shown", "protocol": "as §1"}, "Hs578T": {"system": "Hs578T", "assay": "8-day growth inhibition", "type": "cell-based", "conditions": "Breast, 8-day assay"}, "HCC1143": {"system": "HCC1143", "assay": "8-day growth inhibition", "type": "cell-based", "conditions": "Breast, HCC1143, 8-day assay"}, "HCC70": {"system": "HCC70", "assay": "8-day growth inhibition", "type": "cell-based", "conditions": "Breast, HCC70, 8-day assay"}, "MDA-MB-436": {"system": "MDA-MB-436", "assay": "8-day growth inhibition", "type": "cell-based", "conditions": "Breast, MDA-MB-436, 8-day assay"}, "MDA-MB-157": {"system": "MDA-MB-157", "assay": "8-day growth inhibition", "type": "cell-based", "conditions": "Breast, MDA-MB-157, 8-day assay"}, "HT-1080": {"system": "HT-1080", "assay": "8-day growth inhibition", "type": "cell-based", "conditions": "Fibrosarcoma, HT-1080, 8-day assay"}, "M14": {"system": "M14", "assay": "8-day growth inhibition", "type": "cell-based", "conditions": "Melanoma, M14, 8-day assay"}, "HCT-116": {"system": "HCT-116", "assay": "8-day growth inhibition", "type": "cell-based", "conditions": "Colon, HCT-116, 8-day assay"}, "HCT-15": {"system": "HCT-15", "assay": "8-day growth inhibition", "type": "cell-based", "conditions": "Colon, HCT-15, 8-day assay"}, "HepG2": {"system": "HepG2", "assay": "8-day growth inhibition", "type": "cell-based", "conditions": "HCC, HepG2, 8-day assay"}, "HEC-1": {"system": "HEC-1", "assay": "8-day growth inhibition", "type": "cell-based", "conditions": "Endometrial, HEC-1, 8-day assay"}, "HEC-251": {"system": "HEC-251", "assay": "8-day growth inhibition", "type": "cell-based", "conditions": "Endometrial, HEC-251, 8-day assay"}, "HEC-59": {"system": "HEC-59", "assay": "8-day growth inhibition", "type": "cell-based", "conditions": "Endometrial, HEC-59, 8-day assay"}, "KLE": {"system": "KLE", "assay": "8-day growth inhibition", "type": "cell-based", "conditions": "Endometrial, 8-day assay"}, "HEC-1A": {"system": "HEC-1A", "assay": "8-day growth inhibition", "type": "cell-based", "conditions": "Endometrial, 8-day assay"}, "RL95-2": {"system": "RL95-2", "assay": "8-day growth inhibition", "type": "cell-based", "conditions": "Endometrial, RL95-2, 8-day assay"}, "HEC-265": {"system": "HEC-265", "assay": "8-day growth inhibition", "type": "cell-based", "conditions": "Endometrial, HEC-265, 8-day assay"}, "NCI-H211": {"system": "NCI-H211", "assay": "8-day growth inhibition", "type": "cell-based", "conditions": "SCLC, NCI-H211, 8-day assay"}, "NCI-H82": {"system": "NCI-H82", "assay": "8-day growth inhibition", "type": "cell-based", "conditions": "SCLC, NCI-H82, 8-day assay"}, "NCI-H69": {"system": "NCI-H69", "assay": "8-day growth inhibition", "type": "cell-based", "conditions": "SCLC, NCI-H69, 8-day assay"}, "IM-9": {"system": "IM-9", "assay": "8-day growth inhibition", "type": "cell-based", "conditions": "B lymphoblast, IM-9, 8-day assay"}, "Namalwa": {"system": "Namalwa", "assay": "8-day growth inhibition", "type": "cell-based", "conditions": "Burkitt's lymphoma, 8-day assay"}, "MC/CAR": {"system": "MC/CAR", "assay": "8-day growth inhibition", "type": "cell-based", "conditions": "Myeloma, 8-day assay"}, "U266": {"system": "U266", "assay": "8-day growth inhibition", "type": "cell-based", "conditions": "Myeloma, U266, 8-day assay"}, "Pfeiffer": {"system": "Pfeiffer", "assay": "8-day growth inhibition", "type": "cell-based", "conditions": "DLBCL (GC), 8-day assay"}, "Toledo": {"system": "Toledo", "assay": "8-day growth inhibition", "type": "cell-based", "conditions": "DLBCL (GC), 8-day assay"}, "Jeko-1": {"system": "Jeko-1", "assay": "8-day growth inhibition", "type": "cell-based", "conditions": "MCL, Jeko-1, 8-day assay"}, "Mino": {"system": "Mino", "assay": "8-day growth inhibition", "type": "cell-based", "conditions": "MCL, 8-day assay"}, "THP-1": {"system": "THP-1", "assay": "8-day growth inhibition", "type": "cell-based", "conditions": "AML, THP-1, 8-day assay"}, "MV-4-11": {"system": "MV-4-11", "assay": "8-day growth inhibition", "type": "cell-based", "conditions": "AML, MV-4-11, 8-day assay"}, "RPMI-8226": {"system": "RPMI-8226", "assay": "8-day growth inhibition", "type": "cell-based", "conditions": "Myeloma, RPMI-8226, 8-day assay"}, "ARH-77": {"system": "ARH-77", "assay": "8-day growth inhibition", "type": "cell-based", "conditions": "Myeloma, ARH-77, 8-day assay"}, "PARP2": {"system": "PARP2", "conditions": "read-out: IC50, enzymatic activity of PARP2; cited from earlier work"}, "PARP": {"system": "PARP", "conditions": "100 mg/kg, preclinical studies; cited from earlier work"}}, "note": "Where “and” joins values, the source holds several entries; their conditions need not be identical. Equal values may be shown once."}
{"smiles": "O=c1[nH]nc2c3c(cccc13)N=C(CN1Cc3ccccc3C1)N2", "note": "[E7449]", "values": [{"measurement": "Cmax", "setting": "[1]; fasted (n=10)", "result": "1470 (697) ng/mL"}, {"measurement": "AUC(0-24h)", "setting": "[1]; fasted", "result": "5510 (1730) (n=9) ng·h/mL"}, {"measurement": "AUC(0-inf)", "setting": "[1]; fasted", "result": "4480 (1850) (n=2) ng·h/mL"}, {"measurement": "AUC(0-t)", "setting": "[1]; fasted", "result": "5310 (1780) (n=10) ng·h/mL"}, {"measurement": "Rac", "setting": "[1]; fasted", "result": "1.07 (0.03) (n=2)"}, {"measurement": "t1/2", "setting": "[1]; fasted", "result": "6.11 (0.74) (n=2) h"}, {"measurement": "tmax", "setting": "[1]; fasted", "result": "2.01 (0.97, 3.00) h"}, {"measurement": "Cmax", "setting": "[1]; fed (n=11)", "result": "863 (563) ng/mL"}, {"measurement": "AUC(0-24h)", "setting": "[1]; fed", "result": "6150 (3280) ng·h/mL"}, {"measurement": "AUC(0-inf)", "setting": "[1]; fed", "result": "6600 (1430) (n=5) ng·h/mL"}, {"measurement": "AUC(0-t)", "setting": "[1]; fed", "result": "6150 (3270) ng·h/mL"}, {"measurement": "Rac", "setting": "[1]; fed", "result": "1.08 (0.12) (n=5)"}, {"measurement": "t1/2", "setting": "[1]; fed", "result": "5.64 (3.17) (n=5) h"}, {"measurement": "tmax", "setting": "[1]; fed", "result": "4.05 (1.07, 8.18) h"}, {"measurement": "Increase in AUC (0–24 h or 0-t) with a high-fat meal", "setting": "[1]; 600-mg dose", "result": "~ 10% and 10%"}, {"measurement": "Reduction in Cmax with a high-fat meal", "setting": "[1]; 600-mg dose", "result": 60, "unit": "%"}, {"measurement": "Change in serum concentration of sVEGFR2 from baseline", "setting": "sVEGFR2", "result": "[…]"}, {"measurement": "Change in serum concentration of sVEGFR3 from baseline", "setting": "sVEGFR3", "result": "[…]"}, {"measurement": "IC50", "setting": "Hs578T", "result": 9.6, "unit": "µM"}, {"measurement": "IC50", "setting": "HCC1143", "result": 3.7, "unit": "µM"}, {"measurement": "IC50", "setting": "HCC70", "result": 9.3, "unit": "µM"}, {"measurement": "IC50", "setting": "MDA-MB-436", "result": 0.19, "unit": "µM"}, {"measurement": "IC50", "setting": "MDA-MB-157", "result": 6.8, "unit": "µM"}, {"measurement": "IC50", "setting": "HT-1080", "result": 0.83, "unit": "µM"}, {"measurement": "IC50", "setting": "M14", "result": 6.7, "unit": "µM"}, {"measurement": "IC50", "setting": "HCT-116", "result": 1.7, "unit": "µM"}, {"measurement": "IC50", "setting": "HCT-15", "result": 2.2, "unit": "µM"}, {"measurement": "IC50", "setting": "HepG2", "result": 3.8, "unit": "µM"}, {"measurement": "IC50", "setting": "HEC-1", "result": 1.28, "unit": "µM"}, {"measurement": "IC50", "setting": "HEC-251", "result": 1.26, "unit": "µM"}, {"measurement": "IC50", "setting": "HEC-59", "result": 2.44, "unit": "µM"}, {"measurement": "IC50", "setting": "KLE", "result": 2.59, "unit": "µM"}, {"measurement": "IC50", "setting": "HEC-1A", "result": 2.96, "unit": "µM"}, {"measurement": "IC50", "setting": "RL95-2", "result": 2.13, "unit": "µM"}, {"measurement": "IC50", "setting": "HEC-265", "result": 2.4, "unit": "µM"}, {"measurement": "IC50", "setting": "NCI-H211", "result": 0.48, "unit": "µM"}, {"measurement": "IC50", "setting": "NCI-H82", "result": 0.47, "unit": "µM"}, {"measurement": "IC50", "setting": "NCI-H69", "result": 1.33, "unit": "µM"}, {"measurement": "IC50", "setting": "IM-9", "result": 2.1, "unit": "µM"}, {"measurement": "IC50", "setting": "Namalwa", "result": 2.5, "unit": "µM"}, {"measurement": "IC50", "setting": "MC/CAR", "result": 2.3, "unit": "µM"}, {"measurement": "IC50", "setting": "U266", "result": 6.7, "unit": "µM"}, {"measurement": "IC50", "setting": "Pfeiffer", "result": 0.71, "unit": "µM"}, {"measurement": "IC50", "setting": "Toledo", "result": 1.6, "unit": "µM"}, {"measurement": "IC50", "setting": "Jeko-1", "result": 1.9, "unit": "µM"}, {"measurement": "IC50", "setting": "Mino", "result": 3.4, "unit": "µM"}, {"measurement": "IC50", "setting": "THP-1", "result": 5.4, "unit": "µM"}, {"measurement": "IC50", "setting": "MV-4-11", "result": 0.95, "unit": "µM"}, {"measurement": "IC50", "setting": "RPMI-8226", "result": 9.3, "unit": "µM"}, {"measurement": "IC50", "setting": "ARH-77", "result": 3.2, "unit": "µM"}, {"measurement": "IC50", "setting": "PARP2", "result": "[…]"}, {"measurement": "PARP inhibition in tumours", "setting": "PARP", "result": "sustained PARP inhibition"}]}
